Assay results: patent publication US6211439A, “Herbicide resistance in plants” (MGI Pharma, Inc, priority 1995, dated 2001)

What was measured:
[1] = system: AHAS activity of line XA17 tissue; test: AHAS activity assay, line XA17 tissue; format: biochemical, maize; conditions: for IC50: AHAS activity of line XA17 tissue, read-out: concentration inhibiting AHAS activity 50%; for change in herbicide sensitivity of AHAS, line XA17 vs control, on a concentration basis: maize
Procedure: (§1) Assays were conducted as a modification of the procedure of Smith et al. (1979, Molec. Gen. Genet. 169: 299-314). Plant cell culture material was ground with sand in a cold mortar and pestle in an equal quantity (w/v) of cell disruption media containing 0.05 M potassium phosphate (pH 7.0), 0.1 mM MgSO4, and 0.5 mM dithiothreitol. The preparation was centrifuged at 11,000×g for 20 minutes and the supernatant assayed for AHAS activity. Assays were conducted in 1 ml volumes containing 0.05 M potassium phosphate (pH 8.0), 40 mM pyruvate, 5 mM MgCl2, 0.1 mM thiamine pyrophosphate, 0.2 ml cell extract, and various concentrations of the herbicide of interest. The reaction mixtures were incubated at 30° C. for 75 minutes and the reaction terminated with the addition of 0.1 ml of 50% (v/v) H2 SO4. Following further incubation at 40° C. for 20 minutes, the acetoin formed from acetolactate by acidification was quantitated using the method of Westerfield (1945, J. Biol. Chem. 161: 495). To 0.2 ml of reaction mixture, 0.8 ml of water, 0.5 ml of 0.5% (w/v) creatine, and 0.5 ml of 5% (w/v) naphthol in 10% (w/v) NaOH was added. After mixing, solutions were incubated at room temperature for one hour. The development of pink color was quantitated by measuring light absorbance at 530 nm.
Assays were conducted to determine if acetohydroxyacid synthase extracted from line XA17 tissue was altered with respect to herbicide sensitivity. Such a change would signify that an alteration of this enzyme conferred the herbicide resistance. Assays were conducted as described supra.

control seedlings = test: Seedling assay, control (herbicide sensitive) seedlings; format: in vivo, maize
Description: Seeds to be used as controls in the heritability assay were obtained from regenerated plants from an herbicide sensitive cell line of the same genetic background as line XA17. These regenerated plants were crossed with pollen obtained from a herbicide sensitive inbred B73 plant grown from seed. Seeds were harvested approximately forty days after pollination.
Twenty control seeds and ten XA17 seeds were surface sterilized with 2.6% sodium hypochlorite for twenty minutes and then washed with sterile distilled water. The seed was imbibed overnight in sterile water containing a small quantity of the fungicide, captan (N-trichloromethylthio-4-cyclohexene-1,2-dicarboximide). The mature embryos were then excised from the seed and plated scutellum side down on solid MS media without 2,4-D. Ten control seeds were plated on media containing no 214 and ten were plated in the presence of 6×10^-8M 214 which had been incorporated into the medium after autoclaving but before gelling. All ten XA17 seeds were plated in the presence of 6×10^-8 M 214. Seedlings were evaluated seven days after plating.
XA17 seeds homozygous for the resistance trait were obtained as described in Section 6.4.6. […] Assays were conducted as described in Section 6.4.5.

line XA17 tissue = test: Plant regeneration from line XA17 callus in presence of herbicide; format: cell-based, maize; conditions: 0.1, 0.3, and 3.0 mg per liter 214
Procedure: Eighty to 90 mg quantities of maize callus tissue were transferred to embryo and shoot development (regeneration) media in petri plates. The media consisted of MS basal media supplemented with 0.1 mg per liter 2,4-D and 1×10^-7 M abscissic acid. 0.25% Gelrite (Kelco Co., San Diego, Calif.) was used as a solid support in place of agar. The tissue was incubated in the dark at 26° C. (approximately 300 footcandles,soft white fluorescent) on a cycle of 14 hours light, 10 hours dark. Developing plants reaching a size of 1-3 cm were then transferred to flasks or jars, containing MS media with no supplementation, for further development. When plants reached the two to three leaf stage, they were moved to pots containing vermiculite and exposed to light at 2600 footcandles. These plants were watered with 20% v/v MS media for one week and then with water until they grew stably. The plants were then transferred to soil for growth to maturity.
Traits which are selected for and expressed in undifferentiated cell cultures are not necessarily expressed in the differentiated organs and tissues of a developing plant. Therefore, it was necessary to examine plants regenerated from line XA17 callus tissue in the presence of normally inhibitory concentrations of 214. Line XA17 tissue was transferred to regeneration media containing 0.1, 0.3, and 3.0 mg per liter 214.

Suspension culture cells = test: Protein synthesis: incorporation of radiolabeled amino acids into TCA-precipitable cell components; format: cell-based, maize; conditions: Zea mays; 1×10^-5 M 997; cells at different post-subculture intervals; cell fresh weight basis
Procedure: Suspension culture cells were preincubated for 48 hours in the presence or absence of 1×10^-5 M 997 and then exposed for 12 hours to 75 !Ci of either ^35 S-methionine (1210 Ci/mmol, New England Nuclear, Boston, Mass.) or ^3 H-DL-leucine (55 Ci/mmol, ICN Pharmaceuticals Inc. -K and K Laboratories, Plainview, N.Y.) per 0.1 ml of cells at a cell density of 10% volume cells/volume suspension. Cells were then centrifuged 300×g, washed with cold MS culture media, and ground with a cold mortar and pestle in the presence of one volume of 6 M urea. The resulting extract was centrifuged at 12,800×g for 5 minutes. The pellet was then reextracted and, following centrifugation, the extracts were combined. Protein was precipitated by the addition of 10% w/v trichloroacetic acid (TCA). Protein was removed by centrifugation and resolubilized in 6 M urea. Incorporation of radiolabel into protein was determined by scintillation counting.

[2] = system: AHAS activity from line QJ22; test: AHAS activity assay, line QJ22; format: biochemical, maize; conditions: 3×10^-6 to 3×10^-4 M 997
Procedure: as §1, with “nm. […]” for “nm.”

[3] = control seedlings, 6×10^-8 M 214, seven days after plating

## CC(C)C1(C)NC(c2nc3ccccc3cc2C(=O)O)=NC1=O (stereo not shown) [compound 214, 2-(5-isopropyl-5-methyl-4-oxo-2-imidazolin-2-yl)3-quinolinecarboxylic acid]
[1]
  IC50: 3000 to 30000 µM
  change in herbicide sensitivity of AHAS, line XA17 vs control, on a concentration basis: ≥ 1000 fold
Control seedlings; Zea mays, read-out: concentration inhibiting shoot growth 50%
  IC50: 0.03 µM
Control seedlings; [3]
  average root length: 1.1 cm
  average shoot length: 1.5 cm
Line XA17 tissue
  plantlet development on regeneration media: Normally developing plantlets were obtained at all three herbicide levels

## CC(C)C1(C)NC(c2ncccc2C(=O)O)=NC1=O (stereo not shown) [compound 997, 2-(5-isopropyl-5-methyl-4-oxo-2-imidazolin-2-yl)nicotinic acid]
Suspension culture cells
  inhibition at 10 µM: 50 to 77%
[1]
  IC50: 3000 to 30000 µM
  change in herbicide sensitivity of AHAS, line XA17 vs control, on a concentration basis: ≥ 1000 fold
[2]
  tolerance of AHAS activity vs AHAS from control cultures: more tolerant
